Measured values from the supplement of paper PMC11451515.

System: SEM cells
Experiment: cell viability relative to DMSO control; higher = less cytotoxic
Conditions: 48 h
Procedure, shortened: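 Viability values are per-plate percentages of DMSO wells, with background from cell-free wells. Library compounds in DMSO were pin-dosed, in an 11-point threefold series from 47 μM to 0.79 nM, onto NOMO1 or SEM (500 cells/well) or P12-Ichikawa (1000 cells/well) leukemia cells in 1536-well plates (5 μl). Those cells had been adapted for at least four passages in each medium, and CellTiter-Glo One luminescence was read after 48 h at 37°C.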

[1] = HPLM + 10% dialyzed FBS, 0.000781 µM
[2] = HPLM + 10% dialyzed FBS, 0.00234 µM
[3] = HPLM + 10% dialyzed FBS, 0.00702 µM
[4] = HPLM + 10% dialyzed FBS, 0.0211 µM
[5] = HPLM + 10% dialyzed FBS, 0.0632 µM
[6] = HPLM + 10% dialyzed FBS, 0.19 µM
[7] = HPLM + 10% dialyzed FBS, 0.569 µM
[8] = HPLM + 10% dialyzed FBS, 1.71 µM
[9] = HPLM + 10% dialyzed FBS, 5.12 µM
[10] = HPLM + 10% dialyzed FBS, 15.4 µM
[11] = HPLM + 10% dialyzed FBS, 46.1 µM
[12] = RPMI 5 mM glucose + 10% FBS, 0.000781 µM
[13] = RPMI 5 mM glucose + 10% FBS, 0.00234 µM
[14] = RPMI 5 mM glucose + 10% FBS, 0.00702 µM
[15] = RPMI 5 mM glucose + 10% FBS, 0.0211 µM
[16] = RPMI 5 mM glucose + 10% FBS, 0.0632 µM
[17] = RPMI 5 mM glucose + 10% FBS, 0.19 µM
[18] = RPMI 5 mM glucose + 10% FBS, 0.569 µM
[19] = RPMI 5 mM glucose + 10% FBS, 1.71 µM
[20] = RPMI 5 mM glucose + 10% FBS, 5.12 µM
[21] = RPMI 5 mM glucose + 10% FBS, 15.4 µM
[22] = RPMI 5 mM glucose + 10% FBS, 46.1 µM
[23] = RPMI 5 mM glucose + 10% dialyzed FBS, 0.000781 µM
[24] = RPMI 5 mM glucose + 10% dialyzed FBS, 0.00234 µM
[25] = RPMI 5 mM glucose + 10% dialyzed FBS, 0.00702 µM
[26] = RPMI 5 mM glucose + 10% dialyzed FBS, 0.0211 µM
[27] = RPMI 5 mM glucose + 10% dialyzed FBS, 0.0632 µM
[28] = RPMI 5 mM glucose + 10% dialyzed FBS, 0.19 µM
[29] = RPMI 5 mM glucose + 10% dialyzed FBS, 0.569 µM
[30] = RPMI 5 mM glucose + 10% dialyzed FBS, 1.71 µM
[31] = RPMI 5 mM glucose + 10% dialyzed FBS, 5.12 µM
[32] = RPMI 5 mM glucose + 10% dialyzed FBS, 15.4 µM
[33] = RPMI 5 mM glucose + 10% dialyzed FBS, 46.1 µM

Compound: Clc1ccc(C(Cn2ccnc2)OCc2ccc(Sc3ccccc3)cc2)c(Cl)c1 (centres undefined)
- cell viability [1]: 88.8%
- cell viability [2]: 74.9%
- cell viability [3]: 99.2%
- cell viability [4]: 96.4%
- cell viability [5]: 98.2%
- cell viability [6]: 79.4%
- cell viability [7]: 93.6%
- cell viability [8]: 77.9%
- cell viability [9]: 82.1%
- cell viability [10]: 87.1%
- cell viability [11]: 81.1%
- cell viability [12]: 110%
- cell viability [13]: 104%
- cell viability [14]: 109%
- cell viability [15]: 108%
- cell viability [16]: 116%
- cell viability [17]: 106%
- cell viability [18]: 105%
- cell viability [19]: 92.2%
- cell viability [20]: 77%
- cell viability [21]: 92.7%
- cell viability [22]: 95.8%
- cell viability [23]: 101%
- cell viability [24]: 95.7%
- cell viability [25]: 107%
- cell viability [26]: 122%
- cell viability [27]: 130%
- cell viability [28]: 100%
- cell viability [29]: 103%
- cell viability [30]: 93.5%
- cell viability [31]: 81%
- cell viability [32]: 96.8%
- cell viability [33]: 75.7%

Compound: O=C(Nc1ccncc1)C(=O)c1cn(Cc2ccc(Cl)cc2)c2ccccc12
- cell viability [1]: 92.5%
- cell viability [2]: 94%
- cell viability [3]: 91.7%
- cell viability [4]: 81.9%
- cell viability [5]: 54.8%
- cell viability [6]: 31.5%
- cell viability [7]: 29.4%
- cell viability [8]: 24.7%
- cell viability [9]: 25.7%
- cell viability [10]: 28.5%
- cell viability [11]: 26.3%
- cell viability [12]: 130%
- cell viability [13]: 105%
- cell viability [14]: 122%
- cell viability [15]: 114%
- cell viability [16]: 57.7%
- cell viability [17]: 33%
- cell viability [18]: 17.8%
- cell viability [19]: 18.2%
- cell viability [20]: 18.7%
- cell viability [21]: 22.2%
- cell viability [22]: 28%
- cell viability [23]: 107%
- cell viability [24]: 88.4%
- cell viability [25]: 95.3%
- cell viability [26]: 75.9%
- cell viability [27]: 58.5%
- cell viability [28]: 27.7%
- cell viability [29]: 23.9%
- cell viability [30]: 20.9%
- cell viability [31]: 26.6%
- cell viability [32]: 25.3%
- cell viability [33]: 30.5%

Compound: COc1ccccc1N1CCN(CC(O)COc2cccc3ccccc23)CC1 (centres undefined)
- cell viability [1]: 62.9%
- cell viability [2]: 116%
- cell viability [3]: 124%
- cell viability [4]: 131%
- cell viability [5]: 136%
- cell viability [6]: 119%
- cell viability [7]: 111%
- cell viability [8]: 108%
- cell viability [9]: 121%
- cell viability [10]: 109%
- cell viability [11]: 88.8%

Compound: Clc1ccc(C(Cn2ccnc2)OCc2ccsc2Cl)c(Cl)c1 (centres undefined)
- cell viability [1]: 67.6%
- cell viability [2]: 98.8%
- cell viability [3]: 107%
- cell viability [4]: 93.1%
- cell viability [5]: 114%
- cell viability [6]: 110%
- cell viability [7]: 90.4%
- cell viability [8]: 111%
- cell viability [9]: 111%
- cell viability [10]: 114%
- cell viability [11]: 35.7%
- cell viability [12]: 76.4%
- cell viability [13]: 95.1%
- cell viability [14]: 114%
- cell viability [15]: 105%
- cell viability [16]: 132%
- cell viability [17]: 121%
- cell viability [18]: 100%
- cell viability [19]: 122%
- cell viability [20]: 110%
- cell viability [21]: 112%
- cell viability [22]: 65.6%
- cell viability [23]: 69.3%
- cell viability [24]: 110%
- cell viability [25]: 110%
- cell viability [26]: 117%
- cell viability [27]: 128%
- cell viability [28]: 124%
- cell viability [29]: 101%
- cell viability [30]: 109%
- cell viability [31]: 118%
- cell viability [32]: 105%
- cell viability [33]: 55.9%

Compound: NC(=O)c1ncn([C@@H]2O[C@H](CO)[C@@H](O)[C@H]2O)c1N
- cell viability [12]: 81.8%
- cell viability [13]: 95.1%
- cell viability [14]: 89.9%
- cell viability [15]: 72.7%
- cell viability [16]: 95%
- cell viability [17]: 83.1%
- cell viability [18]: 91.7%
- cell viability [19]: 68%
- cell viability [20]: 66.6%
- cell viability [21]: 69.7%
- cell viability [22]: 18.9%
- cell viability [23]: 120%
- cell viability [24]: 113%
- cell viability [25]: 116%
- cell viability [26]: 120%
- cell viability [27]: 136%
- cell viability [28]: 109%
- cell viability [29]: 121%
- cell viability [30]: 115%
- cell viability [31]: 122%
- cell viability [32]: 114%
- cell viability [33]: 31.5%

Compound: CC=CC1=C(C(=O)O)N2C(=O)[C@@H](NC(=O)[C@H](N)c3ccc(O)cc3)[C@H]2SC1.O
- cell viability [1]: 71.1%
- cell viability [2]: 70.5%
- cell viability [3]: 79.2%
- cell viability [4]: 92.5%
- cell viability [5]: 91.4%
- cell viability [6]: 81.3%
- cell viability [7]: 90.1%
- cell viability [8]: 83.9%
- cell viability [9]: 72.8%
- cell viability [10]: 91.6%
- cell viability [11]: 82.1%
- cell viability [12]: 86.4%
- cell viability [13]: 96.4%
- cell viability [14]: 93.8%
- cell viability [15]: 97.7%
- cell viability [16]: 90.9%
- cell viability [17]: 92.9%
- cell viability [18]: 98.8%
- cell viability [19]: 115%
- cell viability [20]: 86.6%
- cell viability [21]: 105%
- cell viability [22]: 94.6%
- cell viability [23]: 84.8%
- cell viability [24]: 97%
- cell viability [25]: 98.4%
- cell viability [26]: 115%
- cell viability [27]: 109%
- cell viability [28]: 86.1%
- cell viability [29]: 110%
- cell viability [30]: 110%
- cell viability [31]: 84.7%
- cell viability [32]: 112%
- cell viability [33]: 114%

Compound: CC/C(=C(\c1ccccc1)c1ccc(OCCN(C)C)cc1)c1ccccc1
- cell viability [1]: 80.9%
- cell viability [2]: 97.6%
- cell viability [3]: 107%
- cell viability [4]: 103%
- cell viability [5]: 74.6%
- cell viability [6]: 102%
- cell viability [7]: 94%
- cell viability [8]: 108%
- cell viability [9]: 96.3%
- cell viability [10]: 86.2%
- cell viability [11]: 16.8%
- cell viability [12]: 98.1%
- cell viability [13]: 99.7%
- cell viability [14]: 95.8%
- cell viability [15]: 93.8%
- cell viability [16]: 66.7%
- cell viability [17]: 95%
- cell viability [18]: 99.2%
- cell viability [19]: 99.9%
- cell viability [20]: 90.5%
- cell viability [21]: 91.6%
- cell viability [22]: 12.5%
- cell viability [23]: 87.4%
- cell viability [24]: 87.2%
- cell viability [25]: 102%
- cell viability [26]: 95.2%
- cell viability [27]: 81.7%
- cell viability [28]: 115%
- cell viability [29]: 99.4%
- cell viability [30]: 96.3%
- cell viability [31]: 95.2%
- cell viability [32]: 93.9%
- cell viability [33]: 13%

Compound: CC(C)C1=N[N](C\2=C1C(=O)N\C(=N2)CC3=CC=C(OCCO)C=C3)C4=C(Cl)C=CC=C4Cl
- cell viability [1]: 95.1%
- cell viability [2]: 125%
- cell viability [3]: 108%
- cell viability [4]: 109%
- cell viability [5]: 95.9%
- cell viability [6]: 16.8%
- cell viability [7]: 8.67%
- cell viability [8]: 6.16%
- cell viability [9]: 5.35%
- cell viability [10]: 4.68%
- cell viability [11]: 3.44%
- cell viability [12]: 52.1%
- cell viability [13]: 98.6%
- cell viability [14]: 85.3%
- cell viability [15]: 75.8%
- cell viability [16]: 76.5%
- cell viability [17]: 13.8%
- cell viability [18]: 6.73%
- cell viability [19]: 4.7%
- cell viability [20]: 4.18%
- cell viability [21]: 4.05%
- cell viability [22]: 2.06%
- cell viability [23]: 90.4%
- cell viability [24]: 102%
- cell viability [25]: 100%
- cell viability [26]: 109%
- cell viability [27]: 107%
- cell viability [28]: 34.2%
- cell viability [29]: 8.73%
- cell viability [30]: 6.73%
- cell viability [31]: 5.07%
- cell viability [32]: 4.3%
- cell viability [33]: 3.59%

Compound: CCC[S+](=O)([O-])Nc1ccc(F)c(C(=O)c2c[nH]c3ncc(-c4ccc(Cl)cc4)cc23)c1F
- cell viability [1]: 115%
- cell viability [2]: 123%
- cell viability [3]: 122%
- cell viability [4]: 115%
- cell viability [5]: 119%
- cell viability [6]: 124%
- cell viability [7]: 134%
- cell viability [8]: 123%
- cell viability [9]: 131%
- cell viability [10]: 115%
- cell viability [11]: 104%
- cell viability [12]: 105%
- cell viability [13]: 126%
- cell viability [14]: 120%
- cell viability [15]: 99.5%
- cell viability [16]: 127%
- cell viability [17]: 126%
- cell viability [18]: 128%
- cell viability [19]: 121%
- cell viability [20]: 128%
- cell viability [21]: 119%
- cell viability [22]: 107%
- cell viability [23]: 113%
- cell viability [24]: 98.5%
- cell viability [25]: 113%
- cell viability [26]: 121%
- cell viability [27]: 125%
- cell viability [28]: 120%
- cell viability [29]: 128%
- cell viability [30]: 113%
- cell viability [31]: 134%
- cell viability [32]: 122%
- cell viability [33]: 109%
